Patent EP0097023A2, “Prostaglandin D derivatives, process for their preparation and compositions containing them” (ONO PHARMACEUTICAL CO., LTD., priority 1982, dated 1983)
Where two headings read alike, the source gives them in different places.

Legend:
[1] = Blood pressure depression after intravenous administration to the allobarbital-anesthetized dog; assay type: in vivo
[2] = tested on: human myelogenous leukemic cells (HL-60); assay: Inhibition of proliferation of human myelogenous leukemic cells (HL-60), Trypan Blue staining; assay type: cell-based; conditions: for Surviving Cell Number: stationary culture at 37°C for 4 days, start 1 x 10^5 cells/ml, control 44.0 x 10^4; for inhibition at 5 µg/mL: Homo sapiens
Description: The test on the inhibition of the proliferation of human myelogenous leukemic cells was conducted by a well known method. The human myelogenous leukemic cells (HL-60) were added to an RPMI culture solution containing 10% bovine fetal serum, the number of cells in the culture solution was adjusted to 1 x 10^5 cells/ml, a solution in ethanol of the compound under test was added to give a concentration of 5µg/ml, and the mixture was subjected to stationary culture at 37°C for 4 days. As a control, a culture solution containing 0.1% of ethanol was similarly cultured. The culture solutions were stained by the Trypan Blue staining method and the surviving cell number was measured to determine the degree of inhibition relative to the control.

[3] = Acute toxicity by intraperitoneal administration; conditions: mouse, in vivo, ip; intraperitoneal administration in mice
Description: The acute toxicity of the compounds of the present invention was >50 mg/kg by intraperitoneal administration, so that the prostaglandin D derivatives of the present invention may be considered to be sufficiently safe and suitable for medical use.

[4] = 96 h, HL-60, 5 µg/ml, 37°C for 4 days, relative to control (0.1% ethanol), b55 gives the same values in %, read-out: Degree of Inhibition
[5] = HL-60, concentration of 5 µg/ml, read-out: inhibited the proliferation of the leukemic cells
[6] = dosage of 10 µg/kg animal body weight

SMILES | blood pressure depression ([1]; dosage of 100 µg/kg animal body weight) | Surviving Cell Number ([2]; HL-60, 5 µg/ml) | inhibition at 5 µg/mL [2, 4] | inhibition at 5 µg/mL [2, 5] | LD50 [3] | blood pressure depression [1, 6] | duration of blood pressure depression effect [1, 6]
CCCCCC=CC=C1C(=O)C=CC1CC=CCCCC(=O)O (stereo not shown) [(5Z,9Z,14EZ)-11-oxoprosta-5,9,12,14-tetraenoic acid] | did not cause blood pressure depression | 3 x 10^4 cells/ml | 93.2% | 93.2% | 78 mg/kg |  | 
CCCCC[C@H](O)/C=C/[C@H]1C(=O)C[C@H](O)[C@@H]1C/C=C\CCCC(=O)O [PGD2, prostaglandin D2] |  | 19.5 x 10^4 cells/ml | 55.6% | 55.6% |  | 26 mm Hg | 6 min
